Laboratory results: patent publication US4444782A, “2(4-tert.-Butyl-2,6-dichlorophenyl-imino)imidazolidine and use as an anti-hypertension agent” (SmithKline Beckman Corporation, priority 1982, dated 1984)
pEC50: −log10 of the molar value. Structures can show the parent of a compound that is named as a salt. Where two headings read alike, the source gives them in different places.

How the values were obtained:
[1] = molecular target: T1, alpha2 receptor (guinea pig atrium) (Cavia porcellus, UniProt Q60474); assay: isolated, superfused guinea pig left atrium (prejunctional alpha2 agonism)
T1 construct: isolated, superfused guinea pig left atrium; from tissue; host or cells: guinea pig left atrium (sympathetic nerve endings)
T1 sequence (Q60474 1-464): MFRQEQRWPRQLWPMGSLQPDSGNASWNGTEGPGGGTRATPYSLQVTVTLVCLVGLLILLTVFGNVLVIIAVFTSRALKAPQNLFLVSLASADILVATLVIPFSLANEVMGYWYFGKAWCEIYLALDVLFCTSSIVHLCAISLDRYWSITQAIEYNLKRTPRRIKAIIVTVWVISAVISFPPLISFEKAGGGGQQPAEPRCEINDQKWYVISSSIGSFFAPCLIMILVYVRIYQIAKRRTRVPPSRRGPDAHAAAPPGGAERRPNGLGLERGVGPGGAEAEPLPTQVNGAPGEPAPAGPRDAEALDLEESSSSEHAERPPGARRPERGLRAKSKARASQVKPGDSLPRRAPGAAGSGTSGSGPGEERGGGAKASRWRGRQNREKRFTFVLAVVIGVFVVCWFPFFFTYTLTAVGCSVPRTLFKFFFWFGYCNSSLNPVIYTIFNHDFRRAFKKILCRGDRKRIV
Source text: The second type of vascular alpha receptor site to be reported is located prejunctionally on sympathetic neurons and called alpha2 sites. The protocol employed for determining this activity is the isolated, superfused guinea pig left atrium described in the cited Hieble publication.

[2] = potentiation of hexabarbitol induced sleep time (sedation); type: in vivo
[3] = molecular target: T2, alpha3 (vascular postjunctional alpha2) receptor, dog saphenous vein (Canis lupus familiaris, UniProt A0A8I3Q7S8); settings: for relative potency, alpha3: dog saphenous vein, clonidine versus the compound of this invention
T2 construct: the saphenous vein is located and cleaned of connective tissue; from tissue; host or cells: saphenous vein rings of mongrel dogs
T2 sequence (A0A8I3Q7S8 1-427): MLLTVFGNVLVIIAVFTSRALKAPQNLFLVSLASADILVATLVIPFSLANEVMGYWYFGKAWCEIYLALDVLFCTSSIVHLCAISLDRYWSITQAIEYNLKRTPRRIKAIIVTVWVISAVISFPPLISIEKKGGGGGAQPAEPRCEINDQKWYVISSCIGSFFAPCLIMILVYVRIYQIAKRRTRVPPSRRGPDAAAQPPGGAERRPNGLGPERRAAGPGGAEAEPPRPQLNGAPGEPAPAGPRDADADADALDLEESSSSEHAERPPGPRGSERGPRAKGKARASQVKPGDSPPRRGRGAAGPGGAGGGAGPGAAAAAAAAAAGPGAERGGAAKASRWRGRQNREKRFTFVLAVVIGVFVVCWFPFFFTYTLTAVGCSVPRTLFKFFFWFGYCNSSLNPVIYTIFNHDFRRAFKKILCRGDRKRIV
Method: (§1) Another test system to assay for vascular postjunctional alpha2 stimulation utilizes the dog saphenous vein. This activity may be called alpha3 stimulation. The protocol for this test is as follows:
(§2) Mongrel dogs of either sex are anesthetized with sodium pentobarbital (50 mg/kg, i.p.). After the dog is anesthetized, the saphenous vein is located and cleaned of connective tissue, a 2-4 cm. segment is tied at both ends and removed. The venous segment is placed in a dish of cold Krebs solution and additional cleaning is performed to remove as much non-vascular tissue as possible. Ring segments (3-4 mm.) are then cut from the vessel.
(§3) The vessel is mounted in a superfusion chamber as known to the art for the rabbit ear artery except that the insert holding the venous ring has two parallel 0.5 mm tungsten wires separated by 2 mm. The tissue is slipped over these parallel wires and the insert attached to the main block. A third tungsten wire is then inserted through the ring and attached to a force-displacement transducer.
(§4) An initial tension of 4 gm is placed on the tissue, with tension being adjusted until a stable resting tension of 2 gm. is produced. Concentration-effect curves are determined as described in the publication referred to above for the ear artery segment.

[4] = system: alpha3 (vascular postjunctional alpha2) receptor, dog saphenous vein; settings: for α2/α3 Selectivity: ratio of ED50 guinea pig atrium to ED50 dog saphenous vein
Method: as §1, §2, §3, §4

[5] = cited literature; cited from earlier work
normotensive rat = assay: reduction of blood pressure in the normotensive rat model; type: in vivo; settings: for ED30: iv, read-out: EC30 for the reduction of blood pressure (hypotensive effect)
Method: In the normotensive rat model, the I.V. EC30 for the reduction of blood pressure was 9.8 μg/kg.

[6] = molecular target: alpha1 receptor (rabbit ear artery); assay: isolated perfused rabbit ear artery (postjunctional alpha1 agonism); settings: for pEC50: isolated perfused rabbit ear artery, read-out: ED50 Alpha1 Rabbit Ear Artery
Source text: Since the early work on clonidine, at least two types of vascular alpha receptor sites have been identified. A postjunctional, or postsynaptic, alpha1 receptor was initially reported. […] In the alpha test protocol in the isolated perfused rabbit ear artery described by J. P. Hieble et al., Arch.

## Clc1cccc(Cl)c1N=C1NCCN1 [clonidine, 2-(2,6-dichlorophenylimino)-2-imidazolidine]
[1]; guinea pig left atrium
  activity relative to the compound of this invention, alpha2 (times as active): 46
[2]; compared with the compound of this invention
  marked sedation at a dose lower than the compound of this invention (times lower): ~30
[2]; iv, read-out: ED50 in the hexabarbitol sleep time assay
  ED50: 9.6 µg/kg
[3]
  relative potency, alpha3: about equipotent
[4]; in vitro, Table A
  specificity between pre- and post-synaptic receptor subtypes, in words: very little specificity
[4]
  α2/α3 Selectivity: 1
[5]
  sedation, in words (literature): heavy sedation
Normotensive rat; clonidine compared with the compound of this invention
  hypotensive potency relative to the compound of this invention: only slightly more potent
Normotensive rat; normotensive rat, I.V.
  ED30: 2.3 µg/kg

## CC(C)(C)c1cc(Cl)c(N=C2NCCN2)c(Cl)c1 [COMPOUND I, 2-(4-tert.-butyl-2,6-dichlorophenylimino)imidazolidine]
[1]; isolated superfused guinea pig left atrium, read-out: ED50 Alpha2 Guinea Pig Atrium
  pEC50: 6.10
[6]
  pEC50: 7.52
[6]; rabbit ear artery, compared with clonidine
  agonist potency relative to clonidine, alpha1: eight times more potent
[2]; ip, read-out: ED50 for potentiation of hexabarbitol induced sedation
  ED50: 260 µg/kg
[2]; summary statement
  sedative side effects, in words: devoid of the sedative side effects
[3]
  pEC50: 7.59
  relative potency, alpha3: about equipotent
[4]; post- versus presynaptic receptor, in vitro, Table A
  selectivity for the postsynaptic receptor in vitro (fold): 30
[4]
  α2/α3 Selectivity: 30
Normotensive rat; Rattus norvegicus
  ED30: 9.8 µg/kg

## CCc1ccc(N=C2NCCN2)c(Cl)c1 [2-(2-Chloro-4-ethylphenylimino)-imidazolidine]
[5]
  sedation, in words (literature): very strong sedative or sleep inducer

## Clc1cccc(Cl)c1NC1=NCCN1 [CLONIDINE HYDROCHLORIDE]
[1]
  pEC50: 7.77
[6]
  pEC50: 6.54
[3]; dog saphenous vein ring, read-out: ED50 Alpha3 Dog Saphenous Vein
  pEC50: 7.80
[4]
  α2/α3 Selectivity: 1
